Series [1] is described as follows: Half-life in plasma. It counts as ADME, cell-free.
The test system of a further series is Plasmodium falciparum. Put plainly: In vitro inhibitory activity against the chloroquine-resistant Plasmodium falciparum W2 Indochina. It counts as functional, organism-based.
Series [2] can be described thus: Partition coefficient (logP). It counts as physicochemical. Conditions: octanol/water.

Turning to `C[C@H]1[C@@H](C(=O)OCCC(=O)[O-])O[C@@H]2O[C@]3(C)CC[C@H]4[C@H](C)CC[C@@H]1C24OO3.[Na+]`, the half-life (usually the time in which the quantity being followed falls by half) in series [1] is less than 2 h.

`C[C@@H]1CC[C@H]2[C@@H](C)[C@](O[Si](C)(C)C)(C(F)(F)F)O[C@@H]3O[C@]4(C)CC[C@@H]1C32OO4`: in the series with Plasmodium falciparum, the IC50 (as a rule, the concentration that gives 50% inhibition) was 72 nM. That is a double-digit nanomolar value.

As to `CO[C@H]1O[C@@H]2OC3(C)CC[C@H]4[C@H](C)CC[C@@H]([C@H]1C)[C@@]24OO3` (single isomer, unassigned) [ARTEMETHER], in series [2], the logP (in general, a log measure of how a compound divides between an organic and an aqueous phase) was determined as 3.36. In series [1], the half-life is less than 2 h.

As to `C[C@@H]1CC[C@H]2[C@@H](C)C(=O)O[C@@H]3OC4(C)CC[C@@H]1[C@]32OO4` (single isomer, unassigned) [ARTEMISININ], the half-life in series [1] was less than 2 h.

These data come from ChEMBL document CHEMBL1136644, “Alkylation of manganese(II) tetraphenylporphyrin by antimalarial fluorinated artemisinin derivatives” (Bioorg Med Chem Lett, 2003).
